Data taken from patent US20250382303A1, “NOVEL COMPOUND AS NADPH OXIDASE 2 INHIBITOR AND PHARMACEUTICAL COMPOSITION CONTAINING SAME” (DONGGUK UNIVERSITY INDUSTRY-ACADEMIC COOPERATION FOUNDATION, priority 2022, published 2025).
Each block holds one compound with its values, some of them ahead of it.

Molecular target: T1, NOX2 (Homo sapiens, UniProt P04839)
T1 construct: Used for the NOX2 activity assay was human leukemia 60 cells (HL-60), which are widely, universally used to assess NOX2 activity; endogenous in cells
T1 sequence (P04839 2-570 limits assumed): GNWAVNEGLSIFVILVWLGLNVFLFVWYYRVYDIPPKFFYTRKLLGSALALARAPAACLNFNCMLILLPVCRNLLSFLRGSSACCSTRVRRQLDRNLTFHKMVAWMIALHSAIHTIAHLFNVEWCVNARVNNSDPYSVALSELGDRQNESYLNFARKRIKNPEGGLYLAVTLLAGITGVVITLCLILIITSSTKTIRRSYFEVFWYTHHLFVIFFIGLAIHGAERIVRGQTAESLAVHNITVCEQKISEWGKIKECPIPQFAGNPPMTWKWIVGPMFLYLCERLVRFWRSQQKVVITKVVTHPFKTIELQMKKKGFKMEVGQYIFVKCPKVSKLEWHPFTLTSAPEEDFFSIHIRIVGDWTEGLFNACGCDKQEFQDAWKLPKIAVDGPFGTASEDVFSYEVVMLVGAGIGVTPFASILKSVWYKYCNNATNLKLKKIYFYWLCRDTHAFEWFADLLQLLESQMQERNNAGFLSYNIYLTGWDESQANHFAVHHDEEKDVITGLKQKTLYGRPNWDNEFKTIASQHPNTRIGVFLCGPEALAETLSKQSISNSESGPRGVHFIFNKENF
T1 sequence (P13498 2-195 partner limits assumed): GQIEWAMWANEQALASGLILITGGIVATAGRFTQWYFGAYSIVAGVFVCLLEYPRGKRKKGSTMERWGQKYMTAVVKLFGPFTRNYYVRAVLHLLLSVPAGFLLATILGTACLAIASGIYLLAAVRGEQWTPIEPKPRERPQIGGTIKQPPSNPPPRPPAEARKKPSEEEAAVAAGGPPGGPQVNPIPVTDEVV
Assay: NOX2 activity assay: PMA-induced ROS in ATRA-differentiated HL-60 cells (WST-1 or Amplex Red/HRP probe)
Format: cell-based
Details: for IC50: WST-1 probe, differentiated HL-60, 200 ng/mL PMA, read-out: Inhibitory ability (NOX2); for NOX2 inhibitory ability, verbal rating: WST-1, comment on Table 1
Description: NOX activity was evaluated by measuring the reactive oxygen species (ROS) produced by NOX. The probes that were used to measure ROS were water soluble tetrazolium-1 (WST-1, superoxide-specific colorimetric probe) and Amplex Red/horseradish peroxidase (AR/HRP, hydrogen peroxide-specific fluorometric probe), and the concentration of the probes used was […]. For WST-1, the change in the absorbance at 450 nm was measured, and, for AR, the change in fluorescence signals was measured at 560 nm and 585 nm, respectively for excitation wavelength (Ex) and emission wavelength (Em). The optical signal was measured using the SpectraMax M3 microplate reader from Molecular Devices at 37° C. for 60 minutes.
Used for the NOX2 activity assay was human leukemia 60 cells (HL-60), which are widely, universally used to assess NOX2 activity. 1×10^5 cells/mL of HL-60 were treated with […] all-trans-retinoic acid (ATRA) for 4 days to induce differentiation. Differentiated HL-60 (diff. HL-60) was centrifuged at 200 g for 5 minutes and washed twice with HBSS. Differentiation was induced to reach 3×10^4 cells/well on a 96-well plate (diff). HL-60 was seeded. The test material was treated to cells and left in a 37° C. incubator for 60 minutes. As a control group, the same concentration of DMSO, which is the vehicle of the test material, was used. 200 ng/mL phorbol 12-myristate 13-acetate (PMA) was used as the NOX2 activator, and the production amount of ROS induced by PMA was measured for 60 minutes. […] diphenyleneiodonium (DPI), which is well known to inhibit NOX, was used as a positive control group to evaluate whether the NOX2 activity tester properly operates.

Structure (SMILES): CN1C(=O)N(c2cccc(C(=O)N3CCc4ccccc4C3)c2)C2(C)CC1c1ccccc1O2 (stereo not drawn) [Compound 9, 2,5-Dimethyl-3-(3-(1,2,3,4-tetrahydroisoquinoline-2-carbonyl)phenyl)-5,6-dihydro-2H-2,6-methanobenzo[g][1,3,5]oxadiazocin-4(3H)-one]
IC50: > 10 µM

Structure (SMILES): CC12CC(NC(=O)N1c1cccc(C(=O)N3CCc4ccccc4C3)c1)c1ccc(F)cc1O2 (stereo not drawn) [Compound 25k, 9-Fluoro-2-methyl-3-(3-(1,2,3,4-tetrahydroisoquinoline-2-carbonyl)phenyl)-5,6-dihydro-2H-2,6-methanobenzo[g][1,3,5]oxadiazocin-4(3H)-one]
IC50: > 10 µM

Structure (SMILES): COc1cc2c(cc1OC)CN(C(=O)c1cccc(N3C(=O)NC4CC3(C)Oc3ccccc34)c1)CC2 (racemic) [Compound 8b, 3-(3-(6,7-Dimethoxy-1,2,3,4-tetrahydroisoquinoline-2-carbonyl)phenyl)-2-methyl-5,6-dihydro-2H-2,6-methanobenzo[g][1,3,5]oxadiazocin-4(3H)-one]
IC50: > 10 µM

Structure (SMILES): CC12CC(NC(=O)N1c1cccc(C(=O)N3CCc4ccccc4C3)c1)c1cc(-c3ccsc3)ccc1O2 (stereo not drawn) [Compound 26a, 2-Methyl-3-(3-(1,2,3,4-tetrahydroisoquinoline-2-carbonyl)phenyl)-8-(thiophen-3-yl)-5,6-dihydro-2H-2,6-methanobenzo[g][1,3,5]oxadiazocin-4(3H)-one]
concentration dependence of NOX2 inhibition (FIG. 1): inhibited NOX2 activity in a concentration-dependent manner
NOX2 inhibitory ability, verbal rating: excellent inhibitory ability
IC50: < 1 µM

Structure (SMILES): CC12CC(NC(=O)N1c1cccc(C(=O)N3CCc4ccccc4C3)c1)c1cc(C(F)(F)F)ccc1O2 (stereo not drawn) [Compound 25b, 2-Methyl-3-(3-(1,2,3,4-tetrahydroisoquinoline-2-carbonyl)phenyl)-8-(trifluoromethyl)-5,6-dihydro-2H-2,6-methanobenzo[g][1,3,5]oxadiazocin-4(3H)-one]
NOX2 inhibitory ability, verbal rating: excellent inhibitory ability
IC50: > 10 µM

Structure (SMILES): CC12CC(NC(=O)N1c1cccc(C(=O)N3CCc4ccccc4C3)c1)c1cc(N3CCOCC3)ccc1O2 (stereo not drawn) [Compound 26f, 2-Methyl-8-morpholino-3-(3-(1,2,3,4-tetrahydroisoquinoline-2-carbonyl)phenyl)-5,6-dihydro-2H-2,6-methanobenzo[g][1,3,5]oxadiazocin-4(3H)-one]
IC50: 1 to 10 µM

Structure (SMILES): CC12CC(NC(=O)N1c1cccc(C(=O)N3CCc4ccccc4C3)c1)c1cc(F)ccc1O2 (stereo not drawn) [Compound 25d, 8-Fluoro-2-methyl-3-(3-(1,2,3,4-tetrahydroisoquinoline-2-carbonyl)phenyl)-5,6-dihydro-2H-2,6-methanobenzo[g][1,3,5]oxadiazocin-4(3H)-one]
IC50: 1 to 10 µM

Structure (SMILES): CC12CC(NC(=O)N1c1cccc(C(=O)N3CCc4ccccc4C3)c1)c1cccc(-c3ccoc3)c1O2 (stereo not drawn) [Compound 26h, 10-(Furan-3-yl)-2-methyl-3-(3-(1,2,3,4-tetrahydroisoquinoline-2-carbonyl)phenyl)-5,6-dihydro-2H-2,6-methanobenzo[g][1,3,5]oxadiazocin-4(3H)-one]
IC50: 1 to 10 µM

Structure (SMILES): CC12CC(NC(=O)N1c1cccc(C(=O)N3CCc4ccccc4C3)c1)c1ccc(-c3ccsc3)cc1O2 (stereo not drawn) [Compound 26i, 2-Methyl-3-(3-(1,2,3,4-tetrahydroisoquinoline-2-carbonyl)phenyl)-9-(thiophen-3-yl)-5,6-dihydro-2H-2,6-methanobenzo[g][1,3,5]oxadiazocin-4(3H)-one]
IC50: 1 to 10 µM

Structure (SMILES): CC12CC(NC(=O)N1c1cccc(C(=O)N3CCc4ccccc4C3)c1)c1cc(-c3ccco3)ccc1O2 (stereo not drawn) [Compound 26d, 8-(furan-2-yl)-2-methyl-3-(3-(1,2,3,4-tetrahydroisoquinoline-2-carbonyl)phenyl)-5,6-dihydro-2H-2,6-methanobenzo[g][1,3,5]oxadiazocin-4(3H)-one]
NOX2 inhibitory ability, verbal rating: excellent inhibitory ability
IC50: > 10 µM

Structure (SMILES): C[C@@]12C[C@@H](NC(=O)N1c1cccc(C(=O)NCc3ccc(Br)cc3)c1)c1ccccc1O2 [Compound 10b, N-(4-Bromobenzyl)-3-((2R,6R)-2-methyl-4-oxo-5,6-dihydro-2H-2,6-methanobenzo[g][1,3,5]oxadiazocin-3(4H)-yl)benzamide]
IC50: > 10 µM

Structure (SMILES): CC12CC(NC(=O)N1c1cccc(CNc3cccc(C(F)(F)F)c3)c1)c1ccccc1O2 (stereo not drawn) [Compound 19, 2-methyl-3-(3-(((3-(trifluoromethyl)phenyl)amino)methyl)phenyl)-5,6-dihydro-2H-2,6-methanobenzo[g][1,3,5]oxadiazocin-4(3H)-one]
IC50: > 10 µM

Structure (SMILES): CC12CC(NC(=O)N1c1cccc(C(=O)N3CCc4ccccc4C3)c1)c1ccc(-c3ccoc3)cc1O2 (stereo not drawn) [Compound 26j, 9-(Furan-3-yl)-2-methyl-3-(3-(1,2,3,4-tetrahydroisoquinoline-2-carbonyl)phenyl)-5,6-dihydro-2H-2,6-methanobenzo[g][1,3,5]oxadiazocin-4(3H)-one]
IC50: 1 to 10 µM

Structure (SMILES): CC12CC(NC(=O)N1c1cccc(C(=O)NCc3ccc(C(F)(F)F)cc3)c1)c1ccccc1O2 (racemic) [Compound 8c, 3-(2-Methyl-4-oxo-5,6-dihydro-2H-2,6-methanobenzo[g][1,3,5]oxadiazocin-3(4H)-yl)-N-(4-(trifluoromethyl)benzyl)benzamide]
IC50: > 10 µM

Structure (SMILES): CC12CC(NC(=O)N1c1cccc(C(=O)N3CCc4ccccc4C3)c1)c1ccc(Cl)cc1O2 (stereo not drawn) [Compound 25j, 9-Chloro-2-methyl-3-(3-(1,2,3,4-tetrahydroisoquinoline-2-carbonyl)phenyl)-5,6-dihydro-2H-2,6-methanobenzo[g][1,3,5]oxadiazocin-4(3H)-one]
IC50: 1 to 10 µM

Results, then the compound that gave them:

IC50: 1 to 10 µM
Structure (SMILES): CC12CC(NC(=O)N1c1cccc(C(=O)N3CCc4c(cccc4C(F)(F)F)C3)c1)c1cc(-c3ccoc3)ccc1O2 (stereo not drawn) [Compound 28e, 8-(Furan-3-yl)-2-methyl-3-(3-(5-(trifluoromethyl)-1,2,3,4-tetrahydroisoquinoline-2-carbonyl)phenyl)-5,6-dihydro-2H-2,6-methanobenzo[g][1,3,5]oxadiazocin-4(3H)-one]

IC50: > 10 µM
Structure (SMILES): CC12CC(NC(=O)N1c1cccc(C(=O)N3CCc4ncccc4C3)c1)c1cc(-c3ccoc3)ccc1O2 (stereo not drawn) [Compound 28k, 8-(Furan-3-yl)-2-methyl-3-(3-(5,6,7,8-tetrahydro-1,6-naphthyridine-6-carbonyl)phenyl)-5,6-dihydro-2H-2,6-methanobenzo[g][1,3,5]oxadiazocin-4(3H)-one]

IC50: > 10 µM
Structure (SMILES): CC12CC(NC(=O)N1c1cccc(C(=O)N3CCc4cccc(C(F)(F)F)c4C3)c1)c1cc(-c3ccoc3)ccc1O2 (stereo not drawn) [Compound 28g, 8-(Furan-3-yl)-2-methyl-3-(3-(8-(trifluoromethyl)-1,2,3,4-tetrahydroisoquinoline-2-carbonyl)phenyl)-5,6-dihydro-2H-2,6-methanobenzo[g][1,3,5]oxadiazocin-4(3H)-one]

IC50: 1 to 10 µM
Structure (SMILES): CC12CC(NC(=O)N1c1cccc(C(=O)N3CCc4c(cccc4C(F)(F)F)C3)c1)c1cc(Br)ccc1O2 (stereo not drawn) [Compound 27e, 8-Bromo-2-methyl-3-(3-(5-(trifluoromethyl)-1,2,3,4-tetrahydroisoquinoline-2-carbonyl)phenyl)-5,6-dihydro-2H-2,6-methanobenzo[g][1,3,5]oxadiazocin-4(3H)-one]

IC50: > 10 µM
Structure (SMILES): CC12CC(NC(=O)N1c1cccc(C(=O)N3CCc4ccc(C(F)(F)F)cc4C3)c1)c1cc(-c3ccoc3)ccc1O2 (stereo not drawn) [Compound 28f, 8-(Furan-3-yl)-2-methyl-3-(3-(7-(trifluoromethyl)-1,2,3,4-tetrahydroisoquinoline-2-carbonyl)phenyl)-5,6-dihydro-2H-2,6-methanobenzo[g][1,3,5]oxadiazocin-4(3H)-one]
